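The compound was tested at five concentrations on cells cultured in 96-well plates, with a 48-hour exposure period. The concentration for full growth arrest is given as TGI.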
Key:
Assay in all cases: inhibition of tumour cell growth, NCI panel, 48 h
786-0 renal = test system: 786-0 renal
A498 renal = test system: A498 renal
A549 NSCLC = test system: A549 NSCLC
ACHN renal = test system: ACHN renal
BT-549 breast = test system: BT-549 breast
CAKI-1 renal = test system: CAKI-1 renal
CCRF-CEM leukemia = test system: CCRF-CEM leukemia
COLO 205 colon = test system: COLO 205 colon
DU-145 prostate = test system: DU-145 prostate
EKVX NSCLC = test system: EKVX NSCLC
HCC-2998 colon = test system: HCC-2998 colon
HCT-116 colon = test system: HCT-116 colon
HCT-15 colon = test system: HCT-15 colon
HL-60(TB) leukemia = test system: HL-60(TB) leukemia
HOP-92 NSCLC = test system: HOP-92 NSCLC
HS 578T breast = test system: HS 578T breast
IGROV1 ovarian = test system: IGROV1 ovarian
K-562 leukemia = test system: K-562 leukemia
KM12 colon = test system: KM12 colon
LOX IMVI melanoma = test system: LOX IMVI melanoma
M14 melanoma = test system: M14 melanoma
MALME-3M melanoma = test system: MALME-3M melanoma
MCF7 breast = test system: MCF7 breast
MDA-MB-231 breast = test system: MDA-MB-231 breast
MDA-MB-435 = test system: MDA-MB-435
MDA-N = test system: MDA-N
MOLT-4 leukemia = test system: MOLT-4 leukemia
NCI-H23 lung = test system: NCI-H23 lung
NCI-H460 lung = test system: NCI-H460 lung
NCI-H522 lung = test system: NCI-H522 lung
NCI/ADR-RES ovarian = test system: NCI/ADR-RES ovarian
OVCAR-3 ovarian = test system: OVCAR-3 ovarian
OVCAR-4 ovarian = test system: OVCAR-4 ovarian
OVCAR-5 ovarian = test system: OVCAR-5 ovarian
OVCAR-8 ovarian = test system: OVCAR-8 ovarian
RPMI-8226 leukemia = test system: RPMI-8226 leukemia
SF-268 CNS = test system: SF-268 CNS
SF-295 CNS = test system: SF-295 CNS
SF-539 CNS = test system: SF-539 CNS
SK-MEL-2 melanoma = test system: SK-MEL-2 melanoma
SK-MEL-28 melanoma = test system: SK-MEL-28 melanoma
SK-OV-3 ovarian = test system: SK-OV-3 ovarian
SN12C renal = test system: SN12C renal
SNB-19 CNS = test system: SNB-19 CNS
SNB-75 CNS = test system: SNB-75 CNS
SR leukemia = test system: SR leukemia
SW-620 colon = test system: SW-620 colon
T-47D breast = test system: T-47D breast
TK-10 renal = test system: TK-10 renal
U251 CNS = test system: U251 CNS
UACC-257 melanoma = test system: UACC-257 melanoma
UACC-62 melanoma = test system: UACC-62 melanoma
UO-31 renal = test system: UO-31 renal
HOP-62 NSCLC = test system: HOP-62 NSCLC
HT29 colon = test system: HT29 colon
RXF 393 renal = test system: RXF 393 renal
SK-MEL-5 melanoma = test system: SK-MEL-5 melanoma

## COC(=O)CCCC(=O)NC1=C(Nc2ccc(OC)cc2)C(=O)c2ccccc2C1=O
786-0 renal
  TGI: > 100 µM
A498 renal
  TGI: 84.4 µM
A549 NSCLC
  TGI: 42.7 µM
ACHN renal
  TGI: 91.5 µM
BT-549 breast
  TGI: 35.4 µM
CAKI-1 renal
  TGI: > 100 µM
CCRF-CEM leukemia
  TGI: 58.2 µM
COLO 205 colon
  TGI: > 100 µM
DU-145 prostate
  TGI: 31.7 µM
EKVX NSCLC
  TGI: 51.3 µM
HCC-2998 colon
  TGI: > 100 µM
HCT-116 colon
  TGI: 43.2 µM
HCT-15 colon
  TGI: 89 µM
HL-60(TB) leukemia
  TGI: 54.5 µM
HOP-92 NSCLC
  TGI: > 100 µM
HS 578T breast
  TGI: 57.8 µM
IGROV1 ovarian
  TGI: 36.8 µM
K-562 leukemia
  TGI: 70.1 µM
KM12 colon
  TGI: > 100 µM
LOX IMVI melanoma
  TGI: 92.8 µM
M14 melanoma
  TGI: 33.7 µM
MALME-3M melanoma
  TGI: 13.5 µM
MCF7 breast
  TGI: 35.4 µM
MDA-MB-231 breast
  TGI: 82.9 µM
MDA-MB-435
  TGI: 32.1 µM
MDA-N
  TGI: 41.2 µM
MOLT-4 leukemia
  TGI: 60.4 µM
NCI-H23 lung
  TGI: 51.5 µM
NCI-H460 lung
  TGI: 36.6 µM
NCI-H522 lung
  TGI: > 100 µM
NCI/ADR-RES ovarian
  TGI: 71.1 µM
OVCAR-3 ovarian
  TGI: 31.3 µM
OVCAR-4 ovarian
  TGI: 34.6 µM
OVCAR-5 ovarian
  TGI: 33.2 µM
OVCAR-8 ovarian
  TGI: > 100 µM
RPMI-8226 leukemia
  TGI: > 100 µM
SF-268 CNS
  TGI: > 100 µM
SF-295 CNS
  TGI: 88.4 µM
SF-539 CNS
  TGI: 36.1 µM
SK-MEL-2 melanoma
  TGI: 37.8 µM
SK-MEL-28 melanoma
  TGI: 44.9 µM
SK-OV-3 ovarian
  TGI: 82.6 µM
SN12C renal
  TGI: 74.2 µM
SNB-19 CNS
  TGI: > 100 µM
SNB-75 CNS
  TGI: 65.6 µM
SR leukemia
  TGI: > 100 µM
SW-620 colon
  TGI: > 100 µM
T-47D breast
  TGI: > 100 µM
TK-10 renal
  TGI: > 100 µM
U251 CNS
  TGI: 80.9 µM
UACC-257 melanoma
  TGI: 36.1 µM
UACC-62 melanoma
  TGI: 25.3 µM
UO-31 renal
  TGI: > 100 µM

## C/C(=N\O)c1ccc2cc(Br)c3ccccc3c2c1
786-0 renal
  TGI: 43 µM
A498 renal
  TGI: 35.4 µM
A549 NSCLC
  TGI: > 100 µM
ACHN renal
  TGI: > 100 µM
BT-549 breast
  TGI: 64 µM
CAKI-1 renal
  TGI: > 100 µM
CCRF-CEM leukemia
  TGI: 61.1 µM
DU-145 prostate
  TGI: > 100 µM
EKVX NSCLC
  TGI: 45.9 µM
HCC-2998 colon
  TGI: 29.7 µM
HCT-116 colon
  TGI: 25.8 µM
HCT-15 colon
  TGI: 34.7 µM
HL-60(TB) leukemia
  TGI: 44.7 µM
HOP-62 NSCLC
  TGI: 46.8 µM
HOP-92 NSCLC
  TGI: 46.6 µM
HS 578T breast
  TGI: 88.2 µM
HT29 colon
  TGI: 20.5 µM
IGROV1 ovarian
  TGI: > 100 µM
K-562 leukemia
  TGI: > 100 µM
KM12 colon
  TGI: 32.6 µM
LOX IMVI melanoma
  TGI: 32.8 µM
M14 melanoma
  TGI: 41.2 µM
MALME-3M melanoma
  TGI: 35.3 µM
MCF7 breast
  TGI: 35.2 µM
MDA-MB-231 breast
  TGI: 32.1 µM
MDA-MB-435
  TGI: 69.9 µM
MDA-N
  TGI: 43.6 µM
NCI-H23 lung
  TGI: 44.4 µM
NCI-H460 lung
  TGI: 43.2 µM
NCI-H522 lung
  TGI: 33 µM
NCI/ADR-RES ovarian
  TGI: 47.5 µM
OVCAR-3 ovarian
  TGI: 33.3 µM
OVCAR-4 ovarian
  TGI: > 100 µM
OVCAR-5 ovarian
  TGI: 25.8 µM
OVCAR-8 ovarian
  TGI: 60.9 µM
RPMI-8226 leukemia
  TGI: 50.9 µM
RXF 393 renal
  TGI: 31.9 µM
SF-268 CNS
  TGI: > 100 µM
SF-295 CNS
  TGI: 37.5 µM
SK-MEL-2 melanoma
  TGI: 32 µM
SK-MEL-28 melanoma
  TGI: 42.6 µM
SK-MEL-5 melanoma
  TGI: 32 µM
SK-OV-3 ovarian
  TGI: > 100 µM
SN12C renal
  TGI: 48.3 µM
SNB-19 CNS
  TGI: > 100 µM
SNB-75 CNS
  TGI: > 100 µM
SR leukemia
  TGI: > 100 µM
SW-620 colon
  TGI: > 100 µM
T-47D breast
  TGI: 93.3 µM
TK-10 renal
  TGI: 39.8 µM
U251 CNS
  TGI: 28.7 µM
UACC-257 melanoma
  TGI: 33.2 µM
UACC-62 melanoma
  TGI: 47.2 µM
UO-31 renal
  TGI: 36.7 µM

Reference: PubChem BioAssay (NCI)
